Test results: ChEMBL document CHEMBL5108051, “Improving the Antimicrobial Performance of Amphiphilic Cationic Antimicrobial Peptides Using Glutamic Acid Full-Scan and Positive Charge Compensation Strategies” (J Med Chem, 2022)
Converted amounts (≈) assume the structure as drawn. The source made the active and inactive calls. The rule behind the calls is not given here. Bridge positions count the residues as written; N and C are the ends. Square brackets hold non-standard residues; d marks the D form. Peptide text beside a SMILES is read from it. * marks the point of attachment. X1 = CC[C@H](C)CCCCC(=O)*; Dab = NCC[C@H](N)C(=O)O

What was measured:
Staphylococcus aureus [1] = experiment: Induction of cell membrane damage in Staphylococcus aureus ATCC 25923 assessed as increase in nucleic acid leakage by microplate reader assay; format: functional, organism-based; settings: time 0-6 hrs, TDE = time-dependent effect
Escherichia coli [2] = experiment: Antibacterial activity against Escherichia coli ATCC 25922 assessed as fractional inhibitory concentration index in presence of kanamycin by checkerboard assay; format: functional
Staphylococcus aureus [3] = experiment: Antibacterial activity against Staphylococcus aureus ATCC 25923 assessed as fractional inhibitory concentration index in presence of gentamicin by checkerboard assay; format: functional
Staphylococcus aureus [4] = experiment: Antibacterial activity against rifampin resistant Staphylococcus aureus ATCC 25923 assessed as fractional inhibitory concentration index in presence of rifampin by checkerboard assay; format: functional
Cell membrane [5] = experiment: Induction of cell membrane disruption in Escherichia coli ATCC 25922 assessed as cell morphological damage measured after 30 mins by […] electron microscope analysis; format: subcellular
Bacillus subtilis = experiment: Antibacterial activity against Bacillus subtilis ATCC 23857 assessed as growth inhibition measured after 18 to 24 hrs by CLSI based broth microdilution method; format: functional; settings: time 18-24 hrs
Escherichia coli [6] = experiment: Antibacterial activity against gentamicin resistant Escherichia coli ATCC 25922 assessed as fractional inhibitory concentration index in presence of rifampin by checkerboard assay; format: functional
Escherichia coli [7] = experiment: Antibacterial activity against Escherichia coli ATCC 25922 assessed as fractional inhibitory concentration index in presence of rifampin by checkerboard assay; format: functional
Escherichia coli [8] = experiment: Antibacterial activity against rifampin resistant Escherichia coli ATCC 25922 assessed as fractional inhibitory concentration index in presence of kanamycin by checkerboard assay; format: functional
Pseudomonas aeruginosa = experiment: Antibacterial activity against Pseudomonas aeruginosa ATCC 27853 assessed as growth inhibition measured after 18 to 24 hrs by CLSI based broth microdilution method; format: functional; settings: time 18-24 hrs
Klebsiella pneumoniae = experiment: Antibacterial activity against Klebsiella pneumoniae ATCC 700603 assessed as growth inhibition measured after 18 to 24 hrs by CLSI based broth microdilution method; format: functional; settings: time 18-24 hrs
Cell membrane [9] = experiment: Induction of outer membrane permeabilization to NPN in Staphylococcus aureus ATCC 25923 cells assessed as increase in fluorescence intensity measured within 1 min by NPN fluorescent dye based microplate reader assay; format: subcellular
Staphylococcus aureus [10] = experiment: Antibacterial activity against rifampin resistant Staphylococcus aureus ATCC 25923 assessed as fractional inhibitory concentration index in presence of vancomycin by checkerboard assay; format: functional
Staphylococcus aureus [11] = experiment: Antibacterial activity against rifampin resistant Staphylococcus aureus ATCC 25923 assessed as fractional inhibitory concentration index in presence of kanamycin by checkerboard assay; format: functional
Cell membrane [12] = experiment: Induction of cell membrane disruption in Staphylococcus aureus ATCC 25923 assessed as increase in PI uptake measured after 30 to 120 mins by propidium iodide staining based FACS flow cytometry analysis (reference value: 15%); format: subcellular; settings: time 30-120 min
[13] = Acute toxicity in BALB/c mouse assessed as pathological changes in heart at 20 to 80 mg/kg, ip administered as single dose measured for 7 days by H and E staining method; format: organism-based; settings: in vivo, 168 h, dose 20-80 mg/kg, time 7 day
Staphylococcus aureus [14] = experiment: Antibacterial activity against Staphylococcus aureus ATCC 25923 assessed as fractional inhibitory concentration index in presence of kanamycin by checkerboard assay; format: functional
[15] = Acute toxicity in BALB/c mouse assessed as pathological changes in liver at 20 to 80 mg/kg, ip administered as single dose measured for 7 days by H and E staining method; format: organism-based; settings: in vivo, 168 h, dose 20-80 mg/kg, time 7 day
Staphylococcus aureus [16] = experiment: In vivo antimicrobial activity against Staphylococcus aureus ATCC 25923 infected in BALB/C mouse pulmonary infection model at 5 to 10 mg/kg, ip; format: functional, organism-based; settings: dose 5-10 mg/kg
Cell membrane [17] = experiment: Induction of cell membrane disruption in Staphylococcus aureus ATCC 25923 assessed as cell morphological damage measured after 120 mins by […] electron microscope analysis; format: subcellular
Cell membrane [18] = experiment: Induction of inner membrane permeabilization in Escherichia coli ML-35 ATCC 43837 assessed as increase in absorbance at 1 to 4 times MIC measured at 420 nm in presence of ONPG by microplate reader assay; format: subcellular; settings: DDE = dose-dependent effect
Escherichia coli [19] = experiment: Antibacterial activity against rifampin resistant Escherichia coli ATCC 25922 assessed as fractional inhibitory concentration index in presence of rifampin by checkerboard assay; format: functional
[20] = Acute toxicity in BALB/c mouse assessed as mortality at 80 mg/kg, ip administered as single dose measured for 7 days; format: organism-based; settings: in vivo, time 7 day
Cell membrane [21] = experiment: Induction of cell membrane disruption in Escherichia coli ATCC 25922 assessed as increase in PI uptake measured after 30 to 120 mins by propidium iodide staining based FACS flow cytometry analysis (reference value: 6.0 %); format: subcellular; settings: time 30-120 min
Escherichia coli [22] = experiment: Antibacterial activity against Escherichia coli ATCC 25922 assessed as fractional inhibitory concentration index in presence of gentamicin by checkerboard assay; format: functional
Escherichia coli [23] = experiment: Antibacterial activity against gentamicin resistant Escherichia coli ATCC 25922 assessed as fractional inhibitory concentration index in presence of vancomycin by checkerboard assay; format: functional
Cell membrane [24] = experiment: Induction of cell membrane disruption in Escherichia coli ATCC 25922 assessed as cell morphological damage measured after 120 mins by […] electron microscope analysis; format: subcellular
[25] = Retention time of the compound by RP-HPLC analysis; format: physicochemical
Escherichia coli [26] = experiment: Antibacterial activity against gentamicin resistant Escherichia coli ATCC 25922 assessed as fractional inhibitory concentration index in presence of kanamycin by checkerboard assay; format: functional
Escherichia coli [27] = experiment: Antibacterial activity against gentamicin resistant Escherichia coli ATCC 25922 assessed as fractional inhibitory concentration index in presence of gentamicin by checkerboard assay; format: functional
Escherichia coli [28] = experiment: Antibacterial activity against Escherichia coli ATCC 25922 assessed as growth inhibition measured after 18 to 24 hrs by CLSI based broth microdilution method; format: functional; settings: time 18-24 hrs
Escherichia coli [29] = experiment: Antibacterial activity against rifampin resistant Escherichia coli ATCC 25922 assessed as fractional inhibitory concentration index in presence of gentamicin by checkerboard assay; format: functional
Staphylococcus aureus [30] = experiment: Antibacterial activity against gentamicin resistant Staphylococcus aureus ATCC 25923 assessed as fractional inhibitory concentration index in presence of kanamycin by checkerboard assay; format: functional
Staphylococcus aureus [31] = experiment: Antibacterial activity against Staphylococcus aureus ATCC 25923 assessed as fractional inhibitory concentration index in presence of vancomycin by checkerboard assay; format: functional
Escherichia coli [32] = experiment: Induction of cell membrane damage in Escherichia coli ATCC 25922 assessed as increase in nucleic acid leakage by microplate reader assay; format: functional, organism-based; settings: time 0-6 hrs, TDE = time-dependent effect
Staphylococcus aureus [33] = experiment: Antibacterial activity against Staphylococcus aureus ATCC 25923 assessed as growth inhibition measured after 18 to 24 hrs by CLSI based broth microdilution method; format: functional; settings: time 18-24 hrs
Cell membrane [34] = experiment: Induction of cytoplasmic membrane depolarization in Escherichia coli ATCC 25922 assessed as increase in fluorescence intensity measured within 1 min by DiSC3-5 dye based fluorescence method; format: subcellular
Staphylococcus aureus [35] = experiment: Antibacterial activity against rifampin resistant Staphylococcus aureus ATCC 25923 assessed as fractional inhibitory concentration index in presence of gentamicin by checkerboard assay; format: functional
Staphylococcus aureus [36] = experiment: Antibacterial activity against Staphylococcus aureus ATCC 25923 assessed as resistance development measured after 15 passages at sub-MIC concentration by resistance development assay; format: functional, organism-based

SMILES	Activity (Staphylococcus aureus [1])	fractional inhibitory concentration index (FICI) (Escherichia coli [2])	fractional inhibitory concentration index (FICI) (Staphylococcus aureus [3])	fractional inhibitory concentration index (FICI) (Staphylococcus aureus [4])	Activity (Cell membrane [5])	MIC (Bacillus subtilis) [µM]	fractional inhibitory concentration index (FICI) (Escherichia coli [6])	fractional inhibitory concentration index (FICI) (Escherichia coli [7])	fractional inhibitory concentration index (FICI) (Escherichia coli [8])	MIC (Pseudomonas aeruginosa) [µM]	MIC (Klebsiella pneumoniae) [µM]	Activity (Cell membrane [9])	fractional inhibitory concentration index (FICI) (Staphylococcus aureus [10])	fractional inhibitory concentration index (FICI) (Staphylococcus aureus [11])	Activity (Cell membrane [12]) [%]	Activity [13]	fractional inhibitory concentration index (FICI) (Staphylococcus aureus [14])	Activity [15]	Activity (Staphylococcus aureus [16])	Activity (Cell membrane [17])	further results
CC(C)C[C@H](NC(=O)[C@H](CC(C)C)NC(=O)[C@H](CCC(=O)O)NC(=O)[C@H](CCCCN)NC(=O)[C@H](CC(C)C)NC(=O)[C@H](CC(C)C)NC(=O)[C@H](CCCCN)NC(=O)[C@H](C)NC(=O)[C@@H](NC(=O)[C@H](CCCCN)NC(=O)[C@@H]1CCCN1C(=O)[C@H](CC(C)C)NC(=O)[C@@H](N)Cc1ccccc1)C(C)C)C(N)=O (H-FLPKVAKLLKELL-NH2)	Tde	0.625	0.625	0.75	Active	4 (≈ 6.04 µg/mL)	0.625	0.625	0.75	8 (≈ 12.1 µg/mL)	16 (≈ 24.2 µg/mL)	Active	1	0.625	49.3	Non-Toxic	0.625	Non-Toxic	Active	Active	Activity (Cell membrane [18]): Dde; fractional inhibitory concentration index (FICI) (Escherichia coli [19]): 0.75; mortality at 168 h ([20]; BALB/c, read-out: Activity): 40%; Activity (Cell membrane [21]): 83.1%; fractional inhibitory concentration index (FICI) (Escherichia coli [22]): 0.5; fractional inhibitory concentration index (FICI) (Escherichia coli [23]): 0.75; Activity (Cell membrane [24]): Active; Retention_time [25]: 16.475 min; fractional inhibitory concentration index (FICI) (Escherichia coli [26]): 1.25; fractional inhibitory concentration index (FICI) (Escherichia coli [27]): 1.25; MIC (Escherichia coli [28]): 8 µM (≈ 12.1 µg/mL); fractional inhibitory concentration index (FICI) (Escherichia coli [29]): 0.75; fractional inhibitory concentration index (FICI) (Staphylococcus aureus [30]): 1; fractional inhibitory concentration index (FICI) (Staphylococcus aureus [31]): 0.75; Activity (Escherichia coli [32]): Tde; MIC (Staphylococcus aureus [33]): 8 µM (≈ 12.1 µg/mL); Activity (Cell membrane [34]): Active; fractional inhibitory concentration index (FICI) (Staphylococcus aureus [35]): 0.5; Activity (Staphylococcus aureus [36]): Active
CC[C@H](C)CCCCC(=O)N[C@@H](CCN)C(=O)N[C@H](C(=O)N[C@@H](CCN)C(=O)N[C@H]1CCNC(=O)[C@H]([C@@H](C)O)NC(=O)[C@H](CCN)NC(=O)[C@H](CCN)NC(=O)[C@H](CC(C)C)NC(=O)[C@@H](Cc2ccccc2)NC(=O)[C@H](CCN)NC1=O)[C@@H](C)O (X1-[Dab]T[Dab][Dab][Dab][dF]L[Dab][Dab]T; lactam 4-C)	Tde	0.375	0.75	1	Active	4 (≈ 4.81 µg/mL)	0.375	0.1875	0.375	2 (≈ 2.41 µg/mL)	4 (≈ 4.81 µg/mL)	Active	1	0.625	45.8	Non-Toxic	0.75	Non-Toxic	Active	Active	Activity (Cell membrane [18]): Dde; fractional inhibitory concentration index (FICI) (Escherichia coli [19]): 0.5625; Activity ([20]; ip, 80 mg/kg, 168 h): Toxic; Activity (Cell membrane [21]): 38.5%; fractional inhibitory concentration index (FICI) (Escherichia coli [22]): 0.375; fractional inhibitory concentration index (FICI) (Escherichia coli [23]): 0.3125; Activity (Cell membrane [24]): Active; Retention_time [25]: 13.125 min; fractional inhibitory concentration index (FICI) (Escherichia coli [26]): 0.375; fractional inhibitory concentration index (FICI) (Escherichia coli [27]): 0.625; MIC (Escherichia coli [28]): 4 µM (≈ 4.81 µg/mL); fractional inhibitory concentration index (FICI) (Escherichia coli [29]): 0.375; fractional inhibitory concentration index (FICI) (Staphylococcus aureus [30]): 0.625; fractional inhibitory concentration index (FICI) (Staphylococcus aureus [31]): 1.0625; Activity (Escherichia coli [32]): Tde; MIC (Staphylococcus aureus [33]): 16 µM (≈ 19.3 µg/mL); Activity (Cell membrane [34]): Active; fractional inhibitory concentration index (FICI) (Staphylococcus aureus [35]): 0.375; Activity (Staphylococcus aureus [36]): Active
